Test results from patent publication US12617758B2, “Quinazoline derivative having FLT3 inhibitory activity, and use thereof” (INDUSTRY-UNIVERSITY COOPERATION FOUNDATION HANYANG …, priority 2020, dated 2026).
Like-named read-outs stand apart in the source and are kept apart here.

How the values were obtained:
Assay type in all cases: biochemical
GSK3b = GSK3b (Homo sapiens, UniProt P49841); assay: Kinase panel screening; conditions: single dose of 10 μM, read-out: % inhibition rate
FLT3 (F594_R595 ins EY) = FLT3 (F594_R595 ins EY) (Homo sapiens, UniProt P36888, INS594EY); assay: Inhibitory activity against FLT3 mutants; conditions: insertion of 2 amino acids
FLT3 (F594_R595 ins EY), sequence (P36888 with tags, fused parts or gaps INS594EY limits assumed): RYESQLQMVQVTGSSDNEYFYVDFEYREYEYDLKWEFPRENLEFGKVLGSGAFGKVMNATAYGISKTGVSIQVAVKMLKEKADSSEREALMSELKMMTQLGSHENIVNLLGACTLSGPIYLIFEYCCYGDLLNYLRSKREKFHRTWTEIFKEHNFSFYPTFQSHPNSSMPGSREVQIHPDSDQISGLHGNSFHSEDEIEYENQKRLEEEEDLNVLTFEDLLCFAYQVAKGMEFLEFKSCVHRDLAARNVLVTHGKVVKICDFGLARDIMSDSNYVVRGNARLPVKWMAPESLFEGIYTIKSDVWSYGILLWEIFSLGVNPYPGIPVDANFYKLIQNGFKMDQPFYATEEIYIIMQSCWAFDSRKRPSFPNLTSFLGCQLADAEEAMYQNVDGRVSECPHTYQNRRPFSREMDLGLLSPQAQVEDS
Description: (§1) Subsequently, the inhibitory activity of Compound 7d against other different FLT3 mutants was additionally investigated and is shown in Table 2. […] Further, Compound 7d was also strong against FLT3 mutations located in the TKD.

FLT3 (F594_R595 ins R) = FLT3 (F594_R595 ins R) (Homo sapiens, UniProt P36888, INS594R); assay: Inhibitory activity against FLT3 mutants; conditions: insertion of 1 amino acid
Description: as §1

JNK3 = JNK3 (Homo sapiens, UniProt P53779); assay: Kinase panel screening; conditions: single dose of 10 μM, read-out: % inhibition rate
JNK3, sequence (P53779 whole entry, species assumed): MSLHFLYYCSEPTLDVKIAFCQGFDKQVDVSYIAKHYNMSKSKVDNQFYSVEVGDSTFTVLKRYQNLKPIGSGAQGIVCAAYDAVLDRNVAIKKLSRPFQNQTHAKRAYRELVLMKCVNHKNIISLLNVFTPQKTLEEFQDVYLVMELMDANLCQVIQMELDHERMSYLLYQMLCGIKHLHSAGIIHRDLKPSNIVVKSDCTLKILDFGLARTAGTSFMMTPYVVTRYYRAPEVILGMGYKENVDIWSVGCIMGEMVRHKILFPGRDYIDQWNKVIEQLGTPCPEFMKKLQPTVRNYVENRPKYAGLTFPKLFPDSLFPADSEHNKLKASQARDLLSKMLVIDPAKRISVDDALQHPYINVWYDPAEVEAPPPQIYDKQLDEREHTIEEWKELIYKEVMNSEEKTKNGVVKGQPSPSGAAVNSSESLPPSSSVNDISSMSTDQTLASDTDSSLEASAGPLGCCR

SYK = SYK (Homo sapiens, UniProt P43405); assay: Kinase panel screening; conditions: single dose of 10 μM, read-out: % inhibition rate
ROS/ROS1 = ROS/ROS1 (Homo sapiens, UniProt P08922); assay: Kinase panel screening; conditions: single dose of 10 μM, read-out: % inhibition rate
FLT3 = target: T1, FLT3 (Homo sapiens, UniProt P36888); assay: FLT3 enzyme activity (IC50)
T1 sequence (P36888 27-993): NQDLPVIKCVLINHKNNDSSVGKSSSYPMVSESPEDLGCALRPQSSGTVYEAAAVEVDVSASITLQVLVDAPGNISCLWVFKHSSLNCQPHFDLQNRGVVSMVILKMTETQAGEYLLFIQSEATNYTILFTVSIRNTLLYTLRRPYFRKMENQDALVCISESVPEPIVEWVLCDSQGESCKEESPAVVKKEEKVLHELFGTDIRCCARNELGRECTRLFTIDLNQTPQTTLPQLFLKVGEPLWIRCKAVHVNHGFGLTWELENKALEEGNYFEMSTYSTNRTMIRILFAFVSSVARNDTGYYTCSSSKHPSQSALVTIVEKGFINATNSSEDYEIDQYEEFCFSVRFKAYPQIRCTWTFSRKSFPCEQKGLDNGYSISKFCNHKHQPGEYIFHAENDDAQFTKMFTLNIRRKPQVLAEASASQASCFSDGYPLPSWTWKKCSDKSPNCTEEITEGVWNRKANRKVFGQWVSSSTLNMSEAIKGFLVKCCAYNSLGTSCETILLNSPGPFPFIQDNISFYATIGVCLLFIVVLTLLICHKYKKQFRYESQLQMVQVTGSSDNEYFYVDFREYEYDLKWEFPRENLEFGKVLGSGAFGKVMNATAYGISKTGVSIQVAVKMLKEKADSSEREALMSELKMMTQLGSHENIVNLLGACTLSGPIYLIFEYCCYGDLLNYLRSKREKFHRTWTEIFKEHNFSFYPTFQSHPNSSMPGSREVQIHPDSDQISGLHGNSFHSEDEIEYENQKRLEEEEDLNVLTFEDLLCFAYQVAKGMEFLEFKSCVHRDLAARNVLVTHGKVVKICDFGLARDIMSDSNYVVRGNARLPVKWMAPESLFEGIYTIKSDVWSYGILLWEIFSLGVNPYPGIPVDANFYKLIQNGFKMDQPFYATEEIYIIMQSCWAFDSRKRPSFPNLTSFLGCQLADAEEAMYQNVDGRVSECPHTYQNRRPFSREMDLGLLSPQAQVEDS
Description: Experimental Example 1. Measurement of FLT3 and FLT Enzyme Activity
Changes in FLT3 and FLT enzyme activities by treatment with the quinazoline derivatives of the following Table 1 according to the present invention were confirmed by IC50.

Aurora A = Aurora A (Homo sapiens, UniProt O14965); assay: Kinase panel screening; conditions: single dose of 10 μM, read-out: % inhibition rate
CAMKK1 = CAMKK1 (Homo sapiens, UniProt Q8N5S9); assay: Kinase panel screening; conditions: single dose of 10 μM, read-out: % inhibition rate
AXL = AXL (Homo sapiens, UniProt P30530); assay: Kinase panel screening; conditions: single dose of 10 μM, read-out: % inhibition rate
KDR/VEGFR2 = KDR/VEGFR2 (Homo sapiens, UniProt P35968); assay: Kinase panel screening; conditions: single dose of 10 μM, read-out: % inhibition rate
MEK1 = MEK1 (Homo sapiens, UniProt Q02750); assay: Kinase panel screening; conditions: single dose of 10 μM, read-out: % inhibition rate
MEK1, sequence (Q02750 whole entry, species assumed): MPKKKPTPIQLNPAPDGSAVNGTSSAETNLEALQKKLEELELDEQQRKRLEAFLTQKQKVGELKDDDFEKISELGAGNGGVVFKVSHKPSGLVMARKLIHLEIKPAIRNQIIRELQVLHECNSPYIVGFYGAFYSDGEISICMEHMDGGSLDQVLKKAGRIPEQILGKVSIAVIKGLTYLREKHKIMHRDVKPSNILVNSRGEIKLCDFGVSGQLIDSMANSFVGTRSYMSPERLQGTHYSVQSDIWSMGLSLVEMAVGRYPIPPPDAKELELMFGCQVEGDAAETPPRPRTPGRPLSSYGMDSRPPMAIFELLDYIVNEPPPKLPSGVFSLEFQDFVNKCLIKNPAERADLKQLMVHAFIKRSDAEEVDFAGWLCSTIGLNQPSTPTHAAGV

FYN = FYN (Homo sapiens, UniProt P06241); assay: Kinase panel screening; conditions: single dose of 10 μM, read-out: % inhibition rate
FYN, sequence (P06241 whole entry, species assumed): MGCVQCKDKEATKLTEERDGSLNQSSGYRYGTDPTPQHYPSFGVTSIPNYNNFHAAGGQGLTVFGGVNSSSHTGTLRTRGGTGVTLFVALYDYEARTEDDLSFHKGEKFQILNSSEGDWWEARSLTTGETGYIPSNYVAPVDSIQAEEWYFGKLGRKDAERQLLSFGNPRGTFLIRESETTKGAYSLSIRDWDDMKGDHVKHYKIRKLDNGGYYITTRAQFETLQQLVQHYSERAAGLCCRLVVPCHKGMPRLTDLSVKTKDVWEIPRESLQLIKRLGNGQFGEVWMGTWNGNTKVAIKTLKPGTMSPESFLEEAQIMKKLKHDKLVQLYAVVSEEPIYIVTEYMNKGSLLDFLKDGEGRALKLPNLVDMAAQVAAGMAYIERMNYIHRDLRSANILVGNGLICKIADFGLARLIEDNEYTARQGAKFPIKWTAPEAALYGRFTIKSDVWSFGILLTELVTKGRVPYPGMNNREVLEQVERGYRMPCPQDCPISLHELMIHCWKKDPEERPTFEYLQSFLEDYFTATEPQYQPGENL

FGFR3 = FGFR3 (Homo sapiens, UniProt P22607); assay: Kinase panel screening; conditions: single dose of 10 μM, read-out: % inhibition rate
c-MET = c-MET (Homo sapiens, UniProt P08581); assay: Kinase panel screening; conditions: single dose of 10 μM, read-out: % inhibition rate
JAK3 = JAK3 (Homo sapiens, UniProt P52333); assay: Kinase panel screening; conditions: single dose of 10 μM, read-out: % inhibition rate
CDK4/cyclin D1 = CDK4/cyclin D1 (Homo sapiens, UniProt P11802); assay: Kinase panel screening; conditions: single dose of 10 μM, read-out: % inhibition rate
CDK4/cyclin D1, sequence (P11802 whole entry, species assumed): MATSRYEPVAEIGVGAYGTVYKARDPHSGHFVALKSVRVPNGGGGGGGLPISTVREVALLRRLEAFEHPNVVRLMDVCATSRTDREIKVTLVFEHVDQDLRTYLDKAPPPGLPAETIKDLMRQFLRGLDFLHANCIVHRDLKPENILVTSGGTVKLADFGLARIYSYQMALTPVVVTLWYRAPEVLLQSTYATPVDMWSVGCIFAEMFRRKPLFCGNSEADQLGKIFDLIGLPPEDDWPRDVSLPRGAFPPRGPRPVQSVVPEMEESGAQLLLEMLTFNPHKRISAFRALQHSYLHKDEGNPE
CDK4/cyclin D1, sequence (P24385 whole entry partner, species assumed): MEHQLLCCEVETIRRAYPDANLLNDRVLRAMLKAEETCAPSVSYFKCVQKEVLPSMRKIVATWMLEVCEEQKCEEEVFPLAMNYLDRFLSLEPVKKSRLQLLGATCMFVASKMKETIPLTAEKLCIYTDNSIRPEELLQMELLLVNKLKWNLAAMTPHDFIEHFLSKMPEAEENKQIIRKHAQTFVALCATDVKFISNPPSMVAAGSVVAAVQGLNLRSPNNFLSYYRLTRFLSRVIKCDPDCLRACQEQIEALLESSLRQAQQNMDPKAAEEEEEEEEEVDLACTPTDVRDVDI

FLT1/VEGFR1 = FLT1/VEGFR1 (Homo sapiens, UniProt P17948); assay: Kinase panel screening; conditions: single dose of 10 μM, read-out: % inhibition rate
FLT1/VEGFR1, sequence (P17948 27-1338): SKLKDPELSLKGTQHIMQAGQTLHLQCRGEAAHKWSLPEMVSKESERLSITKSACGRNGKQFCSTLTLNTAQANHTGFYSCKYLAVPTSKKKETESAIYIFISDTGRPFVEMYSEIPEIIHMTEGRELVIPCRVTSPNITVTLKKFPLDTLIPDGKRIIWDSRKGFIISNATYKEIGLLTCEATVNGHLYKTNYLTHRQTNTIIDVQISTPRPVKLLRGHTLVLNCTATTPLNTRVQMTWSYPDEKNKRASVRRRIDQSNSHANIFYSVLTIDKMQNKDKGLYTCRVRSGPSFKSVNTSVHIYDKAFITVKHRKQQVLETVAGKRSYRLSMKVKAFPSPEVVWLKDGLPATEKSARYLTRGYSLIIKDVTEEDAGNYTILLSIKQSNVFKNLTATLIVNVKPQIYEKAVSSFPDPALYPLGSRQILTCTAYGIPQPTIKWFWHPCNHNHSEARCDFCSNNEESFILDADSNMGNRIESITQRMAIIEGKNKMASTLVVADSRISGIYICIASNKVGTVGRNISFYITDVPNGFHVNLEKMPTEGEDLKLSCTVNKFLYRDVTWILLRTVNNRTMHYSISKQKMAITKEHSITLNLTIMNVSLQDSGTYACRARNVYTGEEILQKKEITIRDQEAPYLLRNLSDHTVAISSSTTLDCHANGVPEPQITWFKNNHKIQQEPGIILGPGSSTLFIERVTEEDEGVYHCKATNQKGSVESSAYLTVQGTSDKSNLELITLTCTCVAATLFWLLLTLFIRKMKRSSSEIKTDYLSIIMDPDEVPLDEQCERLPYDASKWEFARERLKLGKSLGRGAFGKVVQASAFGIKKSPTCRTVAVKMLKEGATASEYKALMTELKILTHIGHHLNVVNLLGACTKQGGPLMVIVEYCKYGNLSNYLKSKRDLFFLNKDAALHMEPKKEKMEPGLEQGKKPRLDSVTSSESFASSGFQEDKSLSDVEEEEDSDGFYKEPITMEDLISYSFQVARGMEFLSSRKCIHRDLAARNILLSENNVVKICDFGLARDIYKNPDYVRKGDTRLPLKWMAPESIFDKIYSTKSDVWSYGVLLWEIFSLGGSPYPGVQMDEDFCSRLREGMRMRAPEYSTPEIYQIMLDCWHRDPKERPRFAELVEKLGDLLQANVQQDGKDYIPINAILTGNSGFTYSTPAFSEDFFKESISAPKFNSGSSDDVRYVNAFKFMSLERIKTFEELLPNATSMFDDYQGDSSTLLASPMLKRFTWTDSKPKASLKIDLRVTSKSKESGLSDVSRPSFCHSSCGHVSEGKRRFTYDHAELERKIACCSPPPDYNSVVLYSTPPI

RIPK3 = RIPK3 (Homo sapiens, UniProt Q9Y572); assay: Kinase panel screening; conditions: single dose of 10 μM, read-out: % inhibition rate
Procedure: Next, kinase panel screening for Compound 7d was investigated for 36 different kinases at a single dose of 10 μM (FIG. 1 and Table 3).

ALK = ALK (Homo sapiens, UniProt Q9UM73); assay: Kinase panel screening; conditions: single dose of 10 μM, read-out: % inhibition rate
PKA = PKA (Homo sapiens, UniProt P17612); assay: Kinase panel screening; conditions: single dose of 10 μM, read-out: % inhibition rate
PLK1 = PLK1 (Homo sapiens, UniProt P53350); assay: Kinase panel screening; conditions: single dose of 10 μM, read-out: % inhibition rate
PLK1, sequence (P53350 whole entry, species assumed): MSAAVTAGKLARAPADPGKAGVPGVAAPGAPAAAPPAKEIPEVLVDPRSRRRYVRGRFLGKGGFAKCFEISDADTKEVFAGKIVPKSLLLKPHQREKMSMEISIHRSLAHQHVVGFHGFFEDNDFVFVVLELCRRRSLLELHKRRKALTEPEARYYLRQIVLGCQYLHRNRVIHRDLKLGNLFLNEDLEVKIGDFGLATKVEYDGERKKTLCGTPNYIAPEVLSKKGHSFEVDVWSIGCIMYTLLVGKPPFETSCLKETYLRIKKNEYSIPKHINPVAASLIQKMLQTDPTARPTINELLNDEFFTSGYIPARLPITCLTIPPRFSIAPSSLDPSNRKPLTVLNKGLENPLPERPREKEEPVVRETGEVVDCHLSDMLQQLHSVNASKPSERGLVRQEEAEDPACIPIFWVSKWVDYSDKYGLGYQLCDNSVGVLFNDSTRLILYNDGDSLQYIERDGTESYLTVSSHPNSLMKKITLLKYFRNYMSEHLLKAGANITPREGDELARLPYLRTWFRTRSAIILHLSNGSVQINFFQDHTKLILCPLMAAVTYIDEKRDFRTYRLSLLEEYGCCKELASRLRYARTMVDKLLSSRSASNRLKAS

AXL (R499C) = AXL (R499C) (Homo sapiens, UniProt P30530, R499C); assay: Kinase panel screening; conditions: single dose of 10 μM, read-out: % inhibition rate
FLT3-ITD = FLT3-ITD (Homo sapiens, UniProt P36888); assay: Kinase panel screening; conditions: single dose of 10 μM
IGF1R = IGF1R (Homo sapiens, UniProt P08069); assay: Kinase panel screening; conditions: single dose of 10 μM, read-out: % inhibition rate
ERK1 = ERK1 (Homo sapiens, UniProt P27361); assay: Kinase panel screening; conditions: single dose of 10 μM, read-out: % inhibition rate
ERK1, sequence (P27361 whole entry, species assumed): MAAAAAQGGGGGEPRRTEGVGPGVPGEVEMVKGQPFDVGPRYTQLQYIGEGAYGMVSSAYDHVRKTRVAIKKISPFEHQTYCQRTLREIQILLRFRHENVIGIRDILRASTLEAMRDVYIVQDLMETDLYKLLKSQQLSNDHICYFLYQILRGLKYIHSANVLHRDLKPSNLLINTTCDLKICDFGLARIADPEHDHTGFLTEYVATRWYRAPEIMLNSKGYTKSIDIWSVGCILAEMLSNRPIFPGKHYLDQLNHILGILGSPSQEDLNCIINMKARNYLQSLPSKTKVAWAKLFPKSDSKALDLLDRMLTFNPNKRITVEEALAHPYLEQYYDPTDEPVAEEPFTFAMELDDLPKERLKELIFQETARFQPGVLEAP

For `Cc1oncc1C(=O)Nc1ccc2cnc(-c3cc(N4CCN(C)CC4)cc(C(F)(F)F)c3)nc2c1` [Compound 7d, 5-methyl-N-(2-(3-(4-methylpiperazin-1-yl)-5-(trifluoromethyl)phenyl)quinazolin-7-yl)isoxazole-4-carboxamide], the inhibition at 10 µM (GSK3b) was 8.06%, the IC50 (FLT3 (F594_R595 ins EY)) was 495 nM and the IC50 (FLT3 (F594_R595 ins R)) was 524 nM. The inhibition at 10 µM (JNK3) was 19.5%, the inhibition at 10 µM (SYK) was 22.4% and the inhibition at 10 µM (ROS/ROS1) was 14.4%. The IC50 (FLT3; read-out: FLT3 IC50) was under 3000 nM, the IC50 (FLT3; read-out: IC50 against FLT3) was 106 nM and the inhibition at 10 µM (Aurora A) was 20.1%. For the same compound, the inhibition at 10 µM (CAMKK1) was 0%, the inhibition at 10 µM (AXL) was 21.2% and the inhibition at 10 µM (KDR/VEGFR2) was 16.8%. For the same compound, the inhibition at 10 µM (MEK1) was 0%, the inhibition at 10 µM (FYN) was 19% and the inhibition at 10 µM (FGFR3) was 1%. The inhibition at 10 µM (c-MET) was 13.2%, the inhibition at 10 µM (JAK3) was 0.8% and the inhibition at 10 µM (CDK4/cyclin D1) was 3.01%. It also gave an inhibition at 10 µM (FLT1/VEGFR1) of 5.23%, an inhibition at 10 µM (RIPK3) of 12.8% and an inhibition at 10 µM (ALK) of 17%. For the same compound, the inhibition at 10 µM (PKA) was 2.5%, the inhibition at 10 µM (PLK1) was 0% and the inhibition at 10 µM (AXL (R499C)) was 10.1%. For the same compound, the “% inhibition rate” value (FLT3-ITD) was 95.2%, the inhibition at 10 µM (IGF1R) was 0% and the inhibition at 10 µM (ERK1) was 15%.
